{"source": "patent US5670538A", "about": "“Use of prodelphinidins for obtaining medicaments intended for the treatment of arthrosis” (Laboratoires Dolisos, priority 1992, dated 1997)", "key": {"[1]": {"test_system": "human articular chondrocytes", "test": "Radioimmunoassay of prostaglandins E2 (PGE2) produced in tridimensional culture of human chondrocytes", "type": "cell-based", "conditions": "for Amounts of PGE2 in the culture media taken on the 4th and 8th day: 1% Ultroser G, incubation of the 4th to 8th day; for PGE2 in the culture medium: foetal calf serum", "source_text": "The model used for testing the proanthocyanidols, namely the tridimensional culture of human chondrocytes allows chondrorepair to be quantified by the production of matrix substances: type II collagen, proteoglycans, and chondroresorption by the reduction in the levels of prostaglandin E2 and of OH° and O°2 type free radicals produced.\n1. Tridimensional culture of human chondrocytes\nThe technique used has been described in detail (Bassleer et al., 1986).\nBriefly, human articular chondrocytes are cultivated in DMEM (Dulbecco's Modification of Eagle's Medium--ICN--Gand, Belgium) with either Ultroser G 1% (GIBCO, Gand, Belgium) or 10% of foetal calf serum (ICN--Gand--Belgium), and 50 μg of ascorbic acid/ml added to it. The cartilage originates from the apparently normal zone of heads of human femur suffering from arthrosis, immediately after an operation carried out to insert a total hip prosthesis; it can also originate from the head of a healthy femur, but which has undergone a traumatism and has had to be replaced. This cartilage is then digested by clostridial collagenase 1 mg/ml (Boehringer-Mannheim, Germany) in a buffer (NaCl 120 mM, CaCl2 1 mM, KCl 5 mM, KH2 PO4 1 mM, NaHCO3 25 mM, glucose 2 mM and Hepes 30 mM, pH 7.4) for 24 hours. After 6 successive washings and centrifugations, the chondrocytes, isolated from their matrix, are cultured in flasks (10^6 cells/2 ml of culture medium) placed on a gyrator (10 rpm). The cultures are kept at 37° C. in an atmosphere of air 95%-CO2 5% (Bassleer et al., 1986). Cultivated under these conditions, after 4 to 5 days the chondrocytes form a tridimensional cluster in each flask. These clusters, which at first have a flocculent appearance, then tend to condense during the culture. After two weeks, their diameter is, in general, from 1 to 2 mm.\nThe fresh weight of the clusters increases with the duration of the culture, above all during the few first days.\n4. Radioimmunoassay of prostaglandins E2 (PGE2)\nThe radioimmunoassay of PGE2s is carried out according to the method described by Serteyn et al., 1988. The PGE2 is obtained from Sigma (Aldrich-Chemie, Steinheim, Germany) and the ^3 H-PGE2 from NEN (Du Pont de Nemours, Brussels, Belgium). 0.1 ml of incubation buffer (10 mM Tris-HCl […], 0.5% sodium azide (W/V), 1% gelatine (W/V), pH 7.4), 0.1 ml of ^3 H-PGE2 (diluted so as to obtain 10,000 cpm/0.1 ml) and 0.1 ml of antiserum (1/4000) are added successively to 0.1 ml of the sample to be assayed or the reference antigen (0-500 pg). After incubation for 48 hours at 4° C., the free antigen is separated from the antigens bound to the antibodies by a precipitation with carbon-DEXTRAN T70 (0.5 ml per tube). The carbon-Dextran solution contains 5 g/l of neutral carbon, 500 mg of Dextran 70/l. After centrifugation (20 minutes, 3000 rpm, 4° C.), the radioactivity present in the supernatant is measured with a beta counter (Beckman) using liquid scintillation. The sensitivity of the assay is 20 pg/ml.\nThe accuracy of the method is 5%. The coefficients of the intra- and inter assay variation are 6% and 10% respectively. There is no cross reaction between this anti PGE2 antiserum and other prostanoids (Thromboxane B2, G-keto-PGF1-alpha, PGF2, PGA2), nor with the fatty acids such as arachidonic acid, oleic acid or also linoleic acid.\nThe results are expressed in quantities of PG, coll. II or PGE2 measured in the culture medium (CM) per μg of DNA. The cumulative measurements are obtained by adding the quantities assayed in the CMs to each renewal of the CM, for successive periods: 0 to 4, 4 to 8, 8 to 12 days of culture. The total production of PG is calculated by adding the cumulative quantities measured in the CMs to those measured in the corresponding clusters. The mean and the standard deviation (m±s.d) are calculated. Comparison of the mean values is carried out using the Mann-Whitney U statistical test. […]"}, "[2]": {"test_system": "polymorphonuclear cells (PMNs)", "test": "Production of the superoxide anion by the polymorphonuclear cells (PMNs), reduction of ferricytochrome C", "type": "cell-based", "conditions": "0.032 mM; phorbol myristate acetate; no conclusion possible on superoxide inhibition", "experimental": "10. Production of the superoxide anion (O°^2) by the polymorphonuclear cells (PMNs).\nThis is measured with a double beam spectrophotometer which allows the reduction of ferricytochrome C by O°2 tc be monitored. The incubation medium (2.5 ml) is constituted by PBS buffer containing glucose (7.5 mM), ferricytochrome C (0.956 mM), CaCl2 (2.3 mM), MgCl2 (1.1 mM), 7.5.10^6 of cells and the substance to be tested at a concentration of 0.032 mM. The reaction is triggered by adding phorbol myristate acetate at a final concentration of 0.012 mM and the reduction of the cytochrome C is monitored at 550 nm for 10 minutes. The reference cell contains the same material as that described above with an additional 48 μg of superoxide dismutase (SOD)/ml of medium."}}}
{"smiles": "Oc1cc(O)c2c(c1)O[C@H](c1cc(O)c(O)c(O)c1)[C@@H](O)[C@@H]2c1c(O)cc(O)c2c1O[C@H](c1cc(O)c(O)c(O)c1)[C@@H](O)[C@@H]2c1c(O)cc(O)c2c1O[C@H](c1cc(O)c(O)c(O)c1)[C@@H](O)C2", "note": "[Substance Ic, GC-(4 alpha→8) GC-(4 a→8)-GC]", "values": [{"measurement": "Amounts of PGE2 in the culture media taken on the 4th and 8th day", "setting": "[1]; 1 μg/ml", "result": "101 ± 7 pg/μg of DNA"}, {"measurement": "Amounts of PGE2 in the culture media taken on the 4th and 8th day", "setting": "[1]; 10 μg/ml", "result": "81 ± 12 pg/μg of DNA"}, {"measurement": "Amounts of PGE2 in the culture media taken on the 4th and 8th day", "setting": "[1]; 100 μg/ml", "result": "39 ± 10 pg/μg of DNA"}, {"measurement": "PGE2 in the culture medium", "setting": "[1]; 0-4 days, 10 μg/ml", "result": "160 ± 17", "unit": "pg/μg DNA/96 H"}, {"measurement": "PGE2 in the culture medium", "setting": "[1]; 0-4 days, 100 μg/ml", "result": "153 ± 15", "unit": "pg/μg DNA/96 H"}, {"measurement": "PGE2 in the culture medium", "setting": "[1]; 4-8 days, 10 μg/ml", "result": "35.5 ± 2.1", "unit": "pg/μg DNA/96 H"}, {"measurement": "PGE2 in the culture medium", "setting": "[1]; 4-8 days, 100 μg/ml", "result": "29 ± 3.5", "unit": "pg/μg DNA/96 H"}]}
{"smiles": "Oc1cc(O)c2c(c1)O[C@H](c1cc(O)c(O)c(O)c1)[C@@H](O)[C@@H]2c1c(O)cc(O)c2c1O[C@H](c1cc(O)c(O)c(O)c1)[C@@H](O)C2", "note": "[Substance Ib, GC-(4 alpha→8) GC]", "values": [{"measurement": "Amounts of PGE2 in the culture media taken on the 4th and 8th day", "setting": "[1]; 1 μg/ml", "result": "129 ± 19 pg/μg of DNA"}, {"measurement": "Amounts of PGE2 in the culture media taken on the 4th and 8th day", "setting": "[1]; 10 μg/ml", "result": "76 ± 14 pg/μg of DNA"}, {"measurement": "Amounts of PGE2 in the culture media taken on the 4th and 8th day", "setting": "[1]; 100 μg/ml", "result": "48 ± 15 pg/μg of DNA"}, {"measurement": "PGE2 in the culture medium", "setting": "[1]; 0-4 days, 10 μg/ml", "result": "130 ± 21", "unit": "pg/μg DNA/96 H"}, {"measurement": "PGE2 in the culture medium", "setting": "[1]; 0-4 days, 100 μg/ml", "result": "121 ± 16", "unit": "pg/μg DNA/96 H"}, {"measurement": "PGE2 in the culture medium", "setting": "[1]; 4-8 days, 10 μg/ml", "result": "30 ± 1.7", "unit": "pg/μg DNA/96 H"}, {"measurement": "PGE2 in the culture medium", "setting": "[1]; 4-8 days, 100 μg/ml", "result": "25 ± 1", "unit": "pg/μg DNA/96 H"}, {"measurement": "Reduction of ferricytochrome C by PMNs", "setting": "[2]", "result": "strongly reduced"}]}
{"smiles": "Oc1cc(O)c2c(c1)O[C@H](c1cc(O)c(O)c(O)c1)[C@@H](O)[C@@H]2c1c(O)cc(O)c2c1O[C@H](c1cc(O)c(O)c(O)c1)[C@H](O)C2", "note": "[Substance Ia, GC-(4 alpha→8) EGC]", "values": [{"measurement": "Amounts of PGE2 in the culture media taken on the 4th and 8th day", "setting": "[1]; 1 μg/ml", "result": "91.5 ± 9 pg/μg of DNA"}, {"measurement": "Amounts of PGE2 in the culture media taken on the 4th and 8th day", "setting": "[1]; 10 μg/ml", "result": "44 ± 0.6 pg/μg of DNA"}, {"measurement": "Amounts of PGE2 in the culture media taken on the 4th and 8th day", "setting": "[1]; 100 μg/ml", "result": "25 ± 13 pg/μg of DNA"}, {"measurement": "PGE2 in the culture medium", "setting": "[1]; 0-4 days, 10 μg/ml", "result": "312 ± 15", "unit": "pg/μg DNA/96 H"}, {"measurement": "PGE2 in the culture medium", "setting": "[1]; 0-4 days, 100 μg/ml", "result": "143 ± 25", "unit": "pg/μg DNA/96 H"}, {"measurement": "PGE2 in the culture medium", "setting": "[1]; 4-8 days, 10 μg/ml", "result": "27 ± 2.5", "unit": "pg/μg DNA/96 H"}, {"measurement": "PGE2 in the culture medium", "setting": "[1]; 4-8 days, 100 μg/ml", "result": "25 ± 3.5", "unit": "pg/μg DNA/96 H"}, {"measurement": "Reduction of ferricytochrome C by PMNs", "setting": "[2]", "result": "strongly reduced"}]}
